Assay results taken from the NIST ThermoML archive (doi:10.1016/j.fluid.2012.11.003).
± gives the expanded uncertainty stated by the source.

Assays:
[1] = activity coefficient (dimensionless); of the first substance listed, at infinite dilution; xn = mol fraction of the nth substance listed; settings: 101 kPa, Liquid, dilutor technique, x1 = 0
[2] = excess molar enthalpy (molar enthalpy of mixing); xn = mol fraction of the nth substance listed; settings: 353.15 K, 101 kPa, Liquid, Flow calorimetry

Row | Compound | activity coefficient ([1]; 323.15 K) | activity coefficient ([1]; 333.15 K) | activity coefficient ([1]; 343.15 K) | activity coefficient ([1]; 353.15 K) | activity coefficient ([1]; 313.15 K) | further results
1 | CCC(C)O (stereo unspecified) [butan-2-ol] + CCn1cc[n+](C)c1.COS(=O)(=O)[O-] | 4.02 ± 0.36 | 3.11 ± 0.28 | 2.58 ± 0.23 | 2.24 ± 0.2 | – | –
2 | CCCCO [butan-1-ol] + CCOS(=O)(=O)[O-].CCn1cc[n+](C)c1 | 1.65 ± 0.12 | 1.39 ± 0.093 | 1.37 ± 0.092 | 1.19 ± 0.077 | 1.93 ± 0.14 | –
3 | CCO [ethanol] + CCn1cc[n+](C)c1.O=S(=O)([O-])O | 0.269 ± 0.039 | 0.177 ± 0.039 | 0.13 ± 0.039 | 0.116 ± 0.039 | 0.426 ± 0.041 | –
4 | CCCCO [butan-1-ol] + CCn1cc[n+](C)c1.O=S(=O)([O-])O | 0.758 ± 0.052 | 0.62 ± 0.047 | 0.43 ± 0.041 | – | – | –
5 | CCOS(=O)(=O)[O-].CCn1cc[n+](C)c1 [1-ethyl-3-methylimidazolium ethyl sulfate] + CCO | – | – | – | – | – | excess molar enthalpy ([2]; x2 = 0.0627): 0.0259 ± 0.000645 kcal/mol; excess molar enthalpy ([2]; x2 = 0.1063): 0.0446 ± 0.00103 kcal/mol; excess molar enthalpy ([2]; x2 = 0.1471): 0.0636 ± 0.00141 kcal/mol; excess molar enthalpy ([2]; x2 = 0.1979): 0.0845 ± 0.00186 kcal/mol; excess molar enthalpy ([2]; x2 = 0.267): 0.109 ± 0.00239 kcal/mol; excess molar enthalpy ([2]; x2 = 0.3288): 0.137 ± 0.00287 kcal/mol; excess molar enthalpy ([2]; x2 = 0.4017): 0.167 ± 0.00359 kcal/mol; excess molar enthalpy ([2]; x2 = 0.4504): 0.181 ± 0.00382 kcal/mol; excess molar enthalpy ([2]; x2 = 0.548): 0.206 ± 0.00454 kcal/mol; excess molar enthalpy ([2]; x2 = 0.6281): 0.219 ± 0.00478 kcal/mol; excess molar enthalpy ([2]; x2 = 0.7203): 0.219 ± 0.00478 kcal/mol; excess molar enthalpy ([2]; x2 = 0.7937): 0.205 ± 0.0043 kcal/mol; excess molar enthalpy ([2]; x2 = 0.8535): 0.174 ± 0.00382 kcal/mol; excess molar enthalpy ([2]; x2 = 0.9032): 0.13 ± 0.00287 kcal/mol; excess molar enthalpy ([2]; x2 = 0.9412): 0.0823 ± 0.00182 kcal/mol; excess molar enthalpy ([2]; x2 = 0.9776): 0.0327 ± 0.000765 kcal/mol
6 | CCC(C)O (stereo unspecified) [butan-2-ol] + CCn1cc[n+](C)c1.O=S(=O)([O-])O | 1.22 ± 0.079 | 0.76 ± 0.052 | 0.566 ± 0.045 | 0.452 ± 0.042 | – | –
7 | CCO [ethanol] + CCOS(=O)(=O)[O-].CCn1cc[n+](C)c1 | 0.703 ± 0.05 | 0.6 ± 0.046 | 0.554 ± 0.045 | 0.534 ± 0.044 | 0.783 ± 0.053 | activity coefficient ([1]; 303.15 K): 0.866 ± 0.056
8 | CCC(C)O (stereo unspecified) [butan-2-ol] + CCOS(=O)(=O)[O-].CCn1cc[n+](C)c1 | 1.69 ± 0.12 | 1.56 ± 0.11 | 1.62 ± 0.11 | 1.39 ± 0.094 | 1.83 ± 0.13 | activity coefficient ([1]; 303.15 K): 2.06 ± 0.18
9 | CCO [ethanol] + CCn1cc[n+](C)c1.COS(=O)(=O)[O-] | 0.449 ± 0.042 | 0.398 ± 0.041 | 0.349 ± 0.039 | 0.303 ± 0.039 | – | –
10 | CCn1cc[n+](C)c1.COS(=O)(=O)[O-] [1-ethyl-3-methylimidazolium methylsulfate] + CCO | – | – | – | – | – | excess molar enthalpy ([2]; x2 = 0.0977): 0.033 ± 0.000789 kcal/mol; excess molar enthalpy ([2]; x2 = 0.1834): 0.0608 ± 0.00136 kcal/mol; excess molar enthalpy ([2]; x2 = 0.249): 0.0835 ± 0.00184 kcal/mol; excess molar enthalpy ([2]; x2 = 0.3794): 0.134 ± 0.00287 kcal/mol; excess molar enthalpy ([2]; x2 = 0.5247): 0.185 ± 0.00406 kcal/mol; excess molar enthalpy ([2]; x2 = 0.6059): 0.206 ± 0.00454 kcal/mol; excess molar enthalpy ([2]; x2 = 0.701): 0.218 ± 0.00478 kcal/mol; excess molar enthalpy ([2]; x2 = 0.7779): 0.209 ± 0.00454 kcal/mol; excess molar enthalpy ([2]; x2 = 0.8414): 0.183 ± 0.00406 kcal/mol; excess molar enthalpy ([2]; x2 = 0.8947): 0.14 ± 0.00311 kcal/mol; excess molar enthalpy ([2]; x2 = 0.9358): 0.091 ± 0.00198 kcal/mol; excess molar enthalpy ([2]; x2 = 0.9754): 0.0381 ± 0.000884 kcal/mol
11 | CCCCO [butan-1-ol] + CCn1cc[n+](C)c1.COS(=O)(=O)[O-] | 2.62 ± 0.23 | 2.4 ± 0.21 | 2.05 ± 0.18 | 1.74 ± 0.12 | – | –

Second part, led by results:

Row | activity coefficient ([1]; 323.15 K) | activity coefficient ([1]; 333.15 K) | activity coefficient ([1]; 343.15 K) | activity coefficient ([1]; 353.15 K) | activity coefficient ([1]; 313.15 K) | Compound | further results
12 | 0.577 ± 0.046 | 0.356 ± 0.04 | 0.278 ± 0.039 | 0.223 ± 0.039 | – | CC(C)O [propan-2-ol] + CCn1cc[n+](C)c1.O=S(=O)([O-])O | –
13 | 0.087 ± 0.039 | 0.078 | 0.058 | 0.041 | – | CO [methanol] + CCn1cc[n+](C)c1.O=S(=O)([O-])O | –
14 | 0.406 ± 0.041 | 0.41 ± 0.041 | 0.389 ± 0.04 | 0.339 ± 0.039 | 0.419 ± 0.041 | CO [methanol] + CCOS(=O)(=O)[O-].CCn1cc[n+](C)c1 | activity coefficient ([1]; 303.15 K): 0.537 ± 0.044
15 | 1.25 ± 0.082 | 1.04 ± 0.065 | 1.01 ± 0.062 | 0.966 ± 0.06 | 1.31 ± 0.087 | CC(C)O [propan-2-ol] + CCOS(=O)(=O)[O-].CCn1cc[n+](C)c1 | activity coefficient ([1]; 303.15 K): 1.48 ± 0.1
16 | 1.05 ± 0.066 | 0.975 ± 0.06 | 0.839 ± 0.055 | 0.705 ± 0.05 | – | CCCO [propan-1-ol] + CCn1cc[n+](C)c1.COS(=O)(=O)[O-] | –
17 | 1.03 ± 0.064 | 0.914 ± 0.058 | 0.855 ± 0.055 | 0.803 ± 0.054 | 1.2 ± 0.078 | CCCO [propan-1-ol] + CCOS(=O)(=O)[O-].CCn1cc[n+](C)c1 | activity coefficient ([1]; 303.15 K): 1.31 ± 0.087
18 | 0.257 ± 0.039 | 0.203 ± 0.039 | 0.178 ± 0.039 | 0.105 ± 0.039 | – | CO [methanol] + CCn1cc[n+](C)c1.COS(=O)(=O)[O-] | –
19 | 1.33 ± 0.089 | 1.17 ± 0.075 | 1.01 ± 0.062 | 0.84 ± 0.055 | – | CC(C)O [propan-2-ol] + CCn1cc[n+](C)c1.COS(=O)(=O)[O-] | –
20 | 0.431 ± 0.041 | 0.338 ± 0.039 | 0.233 ± 0.039 | 0.196 ± 0.039 | – | CCCO [propan-1-ol] + CCn1cc[n+](C)c1.O=S(=O)([O-])O | –
